Columns and labels:
[1] = system: NF-κB target genes; experiment: RT-PCR analysis of NF-κB target gene expression; type: cell-based, mouse
Experimental: Quantitative RT-PCR Analysis. RNA was extracted from different cell samples with TRIZOL reagent (Invitrogen). cDNA was prepared by annealing RNA (1 μg) with 250 ng of a 5:1 mixture of random and oligo(dT) primers heated at 68° C. for 10 minutes. This was followed by incubation with Moloney murine leukemia virus reverse transcriptase (50 units) (Invitrogen, Carlsbad, Calif.) combined with 10 mM DTT, RNasin (PROMEGA, Madison, Wis.), and 0.5 mM dNTPs at 42° C. for 1 hour. Reactions were diluted to a final volume of 100 μl and heat inactivated at 97° C. for 5 minutes. Twenty μl PCR reactions contained 2 μl cDNA, 10 μl SYBR Green Master Mix (Applied Biosystems, Foster City, Calif.) and corresponding primer sets. Relative expression levels were determined from a standard curve of serial dilutions of proliferating ES cell cDNA samples and were normalized to the expression of glyceraldehyde-3-phosphate dehydrogenase (GAPDH). At least three independent experiments were done for each set of data.

[2] = system: R1 ES cells; experiment: R1 ES cells without LIF and MEF feeder; type: cell-based, mouse
Experimental: R1 ES Cells. R1 Cells were maintained on MEF feeder in ES-IMDM media supplemented with 15% ES-cell quality serum, 10^5 U/100 ml of LIF. Cells were grown for 3-5 days with change of medium every day. For inducing differentiation in monolayer culture and to determine the effect of Gö6983, cells were cultured at feeder-free condition and without LIF for 7 days.

[3] = system: p90Rsk1 (Rsk1); experiment: Phosphorylation of p90Rsk1; type: cell-based, mouse; details: Gö6983 alone
Experimental: Western Blot Analysis. Whole cell lysates were prepared in SDS-gel loading buffer and resolved by 10% PAGE. The antibodies used for this study included β-actin Clone AC-15 from Sigma; p-STAT3 (Tyr705), p-p44/42 MAPK (tyr202/tyr204), p44/42 MAPK, GSK3β, Phospho Akt (Ser473), Akt, p-NFκβ p65 (Ser536), c-Myc, p-c-Myc (Thr58/Ser62), p-p90RSK (Thr359/Ser363), RSK1, Suz12 (D39F6), and Ezh2 (AC22) from Cell Signaling Technology; STAT3 (C-20), Oct-4 (C-10), Nanog (M-149), PKC α (C-20), PKC βI (C-16), PKC βII (C-18), PKC γ (C-19), PKC δ (C-20), PKC ζ (c-20), p-PKC ζ (Thr 410)-R, p-NFκβ p65 (ser311), and RelA (p65) from Santa Cruz Biotechnology; p-LGL1/LGL2 (S650/S654), SSEA4and H3K4Me3 from Abcam; LGL2 (M06), clone 4G2 from Abnova; β-Catenin from BD Transduction Laboratories, and H3K27Me3 and H3K9Me3 from Millipore.

[4] = system: endothelial cells; details: Dutta, et al. (2008); cited from earlier work
[5] = system: E14 cells; experiment: Growth under serum free condition (N2B27 medium); type: cell-based, mouse
Experimental: Growth Under Serum Free Condition. E14 cells were maintained in serum-free N2B27 medium containing DMEM/F12 (Invitrogen), Neurobasal media (Invitrogen), B27 supplement (Invitrogen), N2 supplement (Invitrogen), BSA fraction V (Invitrogen), 2-mercaptoethanol (Sigma) and LIF/BMP4 (R&D Systems, Minneapolis, Minn.) with change of medium on alternate days and passed in every 2-4 days. For experiments with Gö6983, ˜5×10^4 E14 cells were plated on each well of a gelatin-coated 6-well plate having N2B27 medium without LIF/BMP4 and with or without 5 μM Gö6983 and cultured for 3-4 days before passing. Cells were analyzed for expression of different markers (by RT-PCR or immunofluorescence study). For experiments at clonal density, initially, E14 cells were cultured at high density in N2B27 medium with Gö6983 alone for 4 passages, then ˜200 cells were plated in each wells of a 96-well plate with Gö6983 in N2B27 and cultured for 7 more days. After 7 days, colonies were analyzed for Oct4 staining.

COc1ccc2c(c1)c(C1=C(c3c[nH]c4ccccc34)C(=O)NC1=O)cn2CCCN(C)C [Gö6983, 3-[1-[3-(dimethylamino)propyl]5-methoxy-1H-indol-3-yl]-4-(1H-indol-3-yl)-1H-pyrrole-2,5-dione]
activation of NF-κB target gene transcription ([1]; E14 cells, absence of LIF, FIG. 3A): inhibited their activation
activation of NF-κB target genes, RelA phosphorylation and reporter Luciferase ([1]; PKCζkd cells cultured on collagen IV): inhibited the activation
maintenance of undifferentiated R1 ES cells [2]: replaced the requirement of LIF and MEF
phosphorylation of Rsk1 [3]: not inhibited
angiogenic signal-induced VEGFR1 expression in endothelial cells [4]: inhibits angiogenic signal-induced VEGFR1 expression
cell survival when propagated at clonal density in N2B27 medium ([5]; N2B27 medium plus Gö6983, clonal density): poor
induction of inhibitor-of-differentiation genes ([5]; N2B27 without serum, LIF, BMP4, FIG. 1C): not associated with the induction of inhibitor-of-differentiation genes
undifferentiated state in N2B27 medium ([5]; without serum, LIF and BMP4): could be maintained in an undifferentiated state
